Reference: ChEMBL document CHEMBL5230110, “FabI (enoyl acyl carrier protein reductase) - A potential broad spectrum therapeutic target and its inhibitors” (Eur J Med Chem, 2020)
≈ marks a conversion by molar mass, not a printed value.

Legend:
[1] = system: Escherichia coli; experiment: Antibacterial activity against Escherichia coli assessed as bacterial growth inhibition at 50 uM measured after 24 hrs by 96-wellplate reader assay method; format: functional
[2] = system: Moraxella catarrhalis; experiment: Antibacterial activity against Moraxella catarrhalis assessed as inhibition in bacterial growth measured after 24 hrs by broth microdilution method; format: functional
[3] = system: Staphylococcus aureus; experiment: Antibacterial activity against Staphylococcus aureus assessed as inhibition of bacterial growth measured after 24 hrs; format: functional
[4] = system: Staphylococcus aureus; experiment: Antibacterial activity against Methicillin-resistant Staphylococcus aureus ATCC 33592 assessed as bacterial growth inhibition measured after 24 hrs by broth dilution method; format: functional
[5] = Inhibition of Francisella tularensis FabI by addition of crotonyl-CoA as substrate preincubated for 10 mins followed by substrate addition in presence of NAD by spectrophotometer
[6] = system: Staphylococcus aureus; experiment: Antibacterial activity against Staphylococcus aureus ATCC 29213 assessed as bacterial growth inhibition incubated for 24 hrs by broth dilution method; format: functional
[7] = system: Staphylococcus aureus; experiment: Antibacterial activity against Methicillin-resistant Staphylococcus aureus N315 assessed as reduction in bacterial growth; format: functional
[8] = target: T1, Enoyl-[acyl-carrier-protein] reductase [NADPH] FabI (Staphylococcus aureus, UniProt Q6GI75); experiment: Inhibition of Staphylococcus aureus FabI in the presence of NADH using crotonyl CoA as substrate by measuring NADH consumption rate
T1 sequence (Q6GI75 whole entry): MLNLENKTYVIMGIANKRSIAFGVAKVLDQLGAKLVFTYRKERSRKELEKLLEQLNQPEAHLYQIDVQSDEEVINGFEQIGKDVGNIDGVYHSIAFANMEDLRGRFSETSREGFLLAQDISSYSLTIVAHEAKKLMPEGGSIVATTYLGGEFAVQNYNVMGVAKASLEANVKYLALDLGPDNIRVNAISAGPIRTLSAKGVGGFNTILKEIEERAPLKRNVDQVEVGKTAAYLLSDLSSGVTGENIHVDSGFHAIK

[9] = target: T2, Enoyl-[acyl-carrier-protein] reductase [NADH] FabI (Escherichia coli K-12, UniProt P0AEK4); experiment: Inhibition of Escherichia coli FabI in the presence of NADH using crotonyl CoA as substrate by measuring NADH consumption rate
T2 sequence (P0AEK4 whole entry): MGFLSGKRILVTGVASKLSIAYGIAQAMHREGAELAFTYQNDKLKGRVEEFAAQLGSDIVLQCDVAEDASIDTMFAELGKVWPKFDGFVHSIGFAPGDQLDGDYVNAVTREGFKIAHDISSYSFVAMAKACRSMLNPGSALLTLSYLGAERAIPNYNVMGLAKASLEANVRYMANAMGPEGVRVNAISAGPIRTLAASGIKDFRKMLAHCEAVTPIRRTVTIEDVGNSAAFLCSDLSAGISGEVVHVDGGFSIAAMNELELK

[10] = target: T1, Enoyl-[acyl-carrier-protein] reductase [NADPH] FabI; experiment: Inhibition of Staphylococcus aureus ATCC 29213 FabI in the presence of NADH using crotonyl CoA as substrate by measuring NADH consumption rate
[11] = system: Staphylococcus aureus; experiment: Antibacterial activity against quinolone-resistant Staphylococcus aureus; format: functional
[12] = system: Escherichia coli; experiment: Antibacterial activity against Escherichia coli ATCC 8730 assessed as inhibition of bacterial growth; format: functional
[13] = system: Bacillus subtilis; experiment: Antibacterial activity against Bacillus subtilis ATCC 60511 assessed as reduction in bacterial growth at 25 ug/ml measured after 24 hrs serial dilution method; format: functional; conditions: dose 25 µg/ml
[14] = system: Staphylococcus aureus; experiment: Antibacterial activity against Staphylococcus aureus ATCC 11632 assessed as reduction in bacterial growth at 25 ug/ml measured after 24 hrs serial dilution method; format: functional; conditions: dose 25 µg/ml
[15] = system: Vibrio cholerae; experiment: Antibacterial activity against Vibrio cholerae; format: functional
[16] = target: T2, Enoyl-[acyl-carrier-protein] reductase [NADH] FabI; experiment: Inhibition of Escherichia coli DH5alpha FabI in the presence of NADH using crotonyl CoA as substrate by measuring NADH consumption rate

Oc1ccccc1Oc1ccccc1
MIC [1]: 3.7 µg/mL (≈ 19.9 µM)

Cc1ccc(Oc2ccccc2)c(O)c1
MIC [1]: 1 µg/mL (≈ 4.99 µM)

Oc1cc(F)ccc1Oc1ccccc1
MIC [1]: 0.6 µg/mL (≈ 2.94 µM)

Oc1cc(Cl)ccc1Oc1ccccc1
MIC [1]: 0.07 µg/mL (≈ 0.317 µM)

O=C(c1ccc(Cl)cc1O)N1CCc2c(n(Cc3ccc(O)cc3)c3ccccc23)C1
MIC [2]: 2 µg/mL (≈ 4.62 µM)
MIC [3]: 1 µg/mL (≈ 2.31 µM)

CC(c1ccc(Cl)c(Cl)c1)n1cnc2cc3c(cc21)CCC3 (stereo unspecified)
MIC [4]: 6.3 µg/mL (≈ 19 µM)
IC50 [5]: 18 nM
MIC [6]: 5.5 µg/mL (≈ 16.6 µM)

CC(c1ccc(Cl)c(Cl)c1)n1cnc2cc3c(cc21)CCCC3 (stereo unspecified)
MIC [4]: 3.1 µg/mL (≈ 8.98 µM)
IC50 [5]: 14 nM
MIC [6]: 3.1 µg/mL (≈ 8.98 µM)

COc1ccc(Cn2cnc3cc4c(cc32)CCC4)cc1C
MIC [4]: > 12.5 µg/mL
IC50 [5]: 5 nM
MIC [6]: > 12.5 µg/mL

Cc1ccc(Oc2coc(COc3ccccc3)cc2=O)c(C)c1
MIC [7]: 1.56 µg/mL (≈ 4.85 µM)
IC50 [8]: 380000 nM

Cc1cc(Cl)ccc1Oc1coc(/C=C/c2ccc[nH]2)cc1=O
IC50 [9]: 140 nM

Cc1cc(Cl)ccc1Oc1c[nH]c(COc2ccccc2)cc1=O
IC50 [9]: 400 nM

Cc1cc(Cl)ccc1Oc1cn(C)c(COc2ccccc2)cc1=O
IC50 [9]: 110 nM

Cc1ccc(Oc2cn(C)c(COc3ccccc3)cc2=O)c(C)c1
MIC [7]: 0.049 µg/mL (≈ 0.146 µM)
IC50 [8]: 80000 nM

CN1C(=O)[C@@H](c2cc(Cl)c(O)c(Cl)c2)NC(=O)[C@@H]2NC(=O)[C@@H](c3cc(Cl)c(O)c(Cl)c3)NC(=O)[C@H](NC(=O)C(=O)c3cc(Cl)c(O)c(Cl)c3)Cc3cc4ccc(cc4[nH]3)-c3cc2cc(c3O)Oc2ccc(cc2)C[C@H]1C(=O)N[C@@H](C(=O)O)c1ccc(O)cc1
IC50 [10]: 500 nM
MIC [11]: 2 µg/mL (≈ 1.51 µM)

O=c1ccn(Cc2cccc(Br)c2)cc1C(O)c1c(Cl)cccc1Cl (stereo unspecified)
IC50 [9]: 430 nM

O=C(NN1C(=O)CC1c1cc2cc(Br)ccc2nc1Cl)c1ccncc1 (stereo unspecified)
MIC [12]: 0.4 µg/mL (≈ 0.927 µM)
MIC [13]: 12.5 µg/mL (≈ 29 µM)
MIC [14]: 12.5 µg/mL (≈ 29 µM)
MIC [15]: 0.4 µg/mL (≈ 0.927 µM)

Cc1cccc(Cl)c1Cc1c(Cl)n(Cc2cccc(Cl)c2)ccc1=O
IC50 [10]: 340 nM
MIC90 [7]: 0.5 µg/mL (≈ 1.27 µM)
IC50 [16]: 340 nM

COc1nc2ccc(C)cc2cc1C1CC(=O)N1NC(=O)c1ccc(-n2cccc2)cc1 (stereo unspecified)
MIC [12]: 0.4 µg/mL (≈ 0.938 µM)
MIC [13]: 12.5 µg/mL (≈ 29.3 µM)
MIC [14]: 12.5 µg/mL (≈ 29.3 µM)
MIC [15]: 0.4 µg/mL (≈ 0.938 µM)

Cc1cccc(Cl)c1Cc1c(Cl)n(Cc2cccs2)ccc1=O
IC50 [10]: 350 nM
MIC90 [7]: 2 µg/mL (≈ 5.49 µM)
IC50 [16]: 400 nM

COc1nc2ccc(Br)cc2cc1C1CC(=O)N1NC(=O)c1ccncc1 (stereo unspecified)
MIC [12]: 0.4 µg/mL (≈ 0.936 µM)
MIC [13]: 3.12 µg/mL (≈ 7.31 µM)
MIC [14]: 3.12 µg/mL (≈ 7.31 µM)
MIC [15]: 0.4 µg/mL (≈ 0.936 µM)

CCCCCCCCCCCCCCCCc1cc(OC2OC(CO)C(O)C(O)C2O)cc(O)c1C(=O)Oc1cc(C)c(C(=O)O)c(O)c1 (stereo unspecified)
IC50 [10]: 3200 nM

CC(C)CCCC/C=C\CCCCCCCC(=O)O
IC50 [8]: 16300 nM

Cc1ccc(Cn2cnc(-c3ccsc3)c2)cc1
IC50 [9]: 3920 nM
IC50 [8]: 360 nM

COc1ccc(-c2cn(Cc3ccc(C)cc3)cn2)cc1
IC50 [9]: 6440 nM
IC50 [8]: 250 nM

O=C(c1ccc(O)cc1)N1CCc2c(n(Cc3ccc(O)cc3)c3ccccc23)C1
MIC [2]: 8 µg/mL (≈ 20.1 µM)
MIC [3]: 0.5 µg/mL (≈ 1.25 µM)

Cc1ccc(C(=O)N2CCc3c(n(Cc4ccc(O)cc4)c4ccccc34)C2)c(O)c1
MIC [2]: 4 µg/mL (≈ 9.7 µM)
MIC [3]: 1 µg/mL (≈ 2.42 µM)

CC1CC(=O)c2c(cc3c(-c4c(O)cc(O)c5c(O)c6c(cc45)OC(C)CC6=O)c(O)cc(O)c3c2O)O1 (stereo unspecified) [CEPHALOCHROMIN]
IC50 [10]: 1900 nM
IC50 [16]: 1800 nM

Cc1c(N)cccc1Cn1ccc(OCCc2cccs2)cc1=O [CG-400549]
MIC90 [7]: 0.25 µg/mL (≈ 0.734 µM)
MIC [4]: 0.25 µg/mL (≈ 0.734 µM)

CN1C(=O)[C@@H](c2cc(Cl)c(O)c(Cl)c2)NC(=O)[C@@H]2NC(=O)[C@@H](c3cc(Cl)c(O)c(Cl)c3)NC(=O)[C@H](NC(=O)C(=O)c3cc(Cl)c(O)c(Cl)c3)Cc3c[nH]c4c(cccc34)-c3cc2cc(c3O)Oc2ccc(cc2)C[C@H]1C(=O)N[C@@H](C(=O)O)c1ccc(O)cc1 [CHLOROPEPTIN]
IC50 [10]: 300 nM
MIC [11]: 4 µg/mL (≈ 3.01 µM)

CC(C)=CCc1c(O)cc(-c2cc3ccc(O)cc3o2)cc1O [MORACIN C]
MIC [3]: 32 µg/mL (≈ 103 µM)

CC(=O)c1cc2c(=O)c3c(C(=O)O)c(O)c(O)cc3oc2c(C(C)=O)c1-c1coc2cc(O)c(O)c(C(=O)O)c2c1=O [VINAXANTHONE]
IC50 [10]: 900 nM
